Measurements from PMC7224190, “Pharmacological inhibition of PRMT7 links arginine monomethylation to the cellular stress response” (Nature Communications, 2020).

Key:
[1] = target: T1, SUV420H2 (Homo sapiens, UniProt Q86Y97); test: biochemical; set-up: radiometric methyltransferase selectivity assay with tritiated SAM, per cent activity; settings: read-out: % of control remaining
T1 construct: gene KMT5C
Experimental: (§1) The methyltransferase selectivity was assessed at two compound concentrations of 1 and 10 μM by radiometric assays using tritiated-SAM. For methyltransferases: MLL1, MLL3, EZH1 (PRC2), and EZH2 (PRC2), G9a, GLP, SUV39H1, SUV39H2, SUV420H1, SUV420H2, SETD2, SETD8, SETDB1, SETD7, PRMT1, PRMT3, PRMT4, PRMT5/ MEP50 complex, PRMT6, PRMT7, PRMT8, PRMT9, PRDM9, SMYD2, SMYD3, DNMT1, and BCDIN3D the incorporation of a tritium-labeled methyl group into biotinylated substrate was monitored using scintillation proximity assay (SPA). Briefly, a 10 μL reaction containing ^3H-SAM and substrate at concentrations close to the apparent Km values for each enzyme (balanced conditions) was prepared. The reactions were quenched with 10 μL of 7.5 M guanidine hydrochloride; 180 μL of 20 mM Tris buffer (pH 8.0) were added, and the mixture was transferred to a 96-well FlashPlate and incubated for 1 h. The counts per minute (CPM) was measured on a TopCount plate reader. The CPM in the absence of compound or enzyme was defined as 100% activity and background (0%), respectively, for each dataset[74]–[76]. Selectivity of SGC8158 against 342 kinases was evaluated in a kinase panel TR-FRET assay at 1 and 0.1 μM compound in duplicates as described before. Briefly, tagged kinases were incubated with compound and staurosporine-based fluorescent probe where the binding was detected using Tb conjugated anti-tag antibody energy transfer to the probe. Excitation wavelength was 337 nm and fluorescent emission signal was measured for Tb (486 nm) and fluorescent probe (BODIPY, 515 nm). Specific and non-specific binding was determined in the absence and presence of unlabeled staurosporine.

[2] = target: T2, NSD2 (Homo sapiens, UniProt O96028); test: biochemical; set-up: radiometric methyltransferase selectivity assay with tritiated SAM, per cent activity; settings: read-out: % of control remaining
T2 sequence (O96028 1-1365): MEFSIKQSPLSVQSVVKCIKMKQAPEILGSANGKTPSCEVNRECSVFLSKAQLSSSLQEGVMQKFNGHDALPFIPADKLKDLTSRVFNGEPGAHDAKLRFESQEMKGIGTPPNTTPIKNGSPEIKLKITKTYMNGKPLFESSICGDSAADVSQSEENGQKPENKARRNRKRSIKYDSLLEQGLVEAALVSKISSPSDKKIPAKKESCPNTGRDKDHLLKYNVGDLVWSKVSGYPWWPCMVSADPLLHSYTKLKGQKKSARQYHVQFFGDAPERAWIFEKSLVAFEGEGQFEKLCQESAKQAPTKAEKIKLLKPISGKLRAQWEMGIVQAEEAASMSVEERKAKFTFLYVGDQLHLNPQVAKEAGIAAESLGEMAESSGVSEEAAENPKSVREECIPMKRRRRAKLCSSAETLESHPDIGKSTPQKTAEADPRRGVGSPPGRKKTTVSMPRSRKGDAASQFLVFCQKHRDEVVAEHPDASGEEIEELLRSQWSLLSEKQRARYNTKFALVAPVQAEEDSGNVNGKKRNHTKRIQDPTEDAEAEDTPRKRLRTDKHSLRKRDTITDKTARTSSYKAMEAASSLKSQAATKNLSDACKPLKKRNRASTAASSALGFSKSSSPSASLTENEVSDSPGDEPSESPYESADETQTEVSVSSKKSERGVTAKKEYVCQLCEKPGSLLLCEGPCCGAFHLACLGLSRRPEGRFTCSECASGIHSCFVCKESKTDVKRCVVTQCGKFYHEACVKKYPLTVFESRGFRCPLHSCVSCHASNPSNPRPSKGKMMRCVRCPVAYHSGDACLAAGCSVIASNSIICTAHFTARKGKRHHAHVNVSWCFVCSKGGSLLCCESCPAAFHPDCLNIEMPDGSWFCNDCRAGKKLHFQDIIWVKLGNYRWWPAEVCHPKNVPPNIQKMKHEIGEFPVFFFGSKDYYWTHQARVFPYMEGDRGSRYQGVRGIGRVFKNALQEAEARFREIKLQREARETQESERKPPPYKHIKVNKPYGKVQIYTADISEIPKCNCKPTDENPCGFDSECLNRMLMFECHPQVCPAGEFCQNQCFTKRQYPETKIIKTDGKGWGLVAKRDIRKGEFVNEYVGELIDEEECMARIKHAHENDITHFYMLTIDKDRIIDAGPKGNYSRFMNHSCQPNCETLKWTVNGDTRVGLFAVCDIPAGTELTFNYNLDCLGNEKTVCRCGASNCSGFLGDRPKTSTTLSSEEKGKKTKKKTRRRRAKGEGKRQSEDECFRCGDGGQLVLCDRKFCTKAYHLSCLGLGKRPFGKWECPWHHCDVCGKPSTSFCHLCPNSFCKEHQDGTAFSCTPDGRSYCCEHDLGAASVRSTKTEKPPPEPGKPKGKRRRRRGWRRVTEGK
Experimental: as §1

T1 sequence (Q86Y97 whole entry): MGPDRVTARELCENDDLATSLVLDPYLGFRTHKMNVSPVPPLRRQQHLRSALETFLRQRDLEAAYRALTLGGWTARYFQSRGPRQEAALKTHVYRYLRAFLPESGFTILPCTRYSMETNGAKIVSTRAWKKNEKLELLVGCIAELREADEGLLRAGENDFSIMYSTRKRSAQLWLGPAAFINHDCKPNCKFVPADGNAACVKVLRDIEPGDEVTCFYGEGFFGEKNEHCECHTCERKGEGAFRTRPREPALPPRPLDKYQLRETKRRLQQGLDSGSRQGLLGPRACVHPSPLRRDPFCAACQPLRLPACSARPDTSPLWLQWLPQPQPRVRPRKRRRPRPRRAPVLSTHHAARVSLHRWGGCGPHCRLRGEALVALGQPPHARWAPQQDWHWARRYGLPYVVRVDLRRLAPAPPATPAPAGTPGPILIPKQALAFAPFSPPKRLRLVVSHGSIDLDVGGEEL

| SMILES | remaining activity at 1 µM [1] | remaining activity at 10 µM [1] | remaining activity at 1 µM [2] | remaining activity at 10 µM [2] |
| --- | --- | --- | --- | --- |
| Nc1ncnc2c1ncn2[C@@H]1O[C@H](CSCCCCNCc2cccc(-c3ccc(Cl)cc3)c2)[C@@H](O)[C@H]1O [SGC8158] | 98% | 87% | 106% | 101% |
| CC1(C)O[C@@H]2[C@H](O1)[C@@H](CSCCCCNCc1cccc(-c3ccc(Cl)cc3)c1)O[C@H]2n1cnc2c(N)ncnc21 [SGC8158N] | 102% | 101% | 92% | 97% |
